Test results as given in paper PMC5120310, “In Silico Exploration for Novel Type-I Inhibitors of Tie-2/TEK: The Performance of Different Selection Strategy in Selecting Virtual Screening Candidates” (Scientific Reports, 2016).
Where two headings read alike, the source gives them in different places.

Target: T1, recombinant human Tie-2 protein (Homo sapiens, UniProt Q02763)
T1 construct: purchased Thermo Fisher Scientific Inc. PV3628
Assay: Z′-Lyte FRET enzymatic activity assay of Tie-2 kinase
Format: biochemical
Details: for Inhibition (%) @10 μg/ml / inhibition at 10 µg/mL: 10 μg/mL preliminary screening, Table S1; for inhibition at 5 µg/mL: 5 μg/mL, n ≥ 2, read-out: Kinase Inhibition (%) at 5 μg/mL (± SD)

[1] = Z′-Lyte assay, 100 μM ATP, n ≥ 2 per concentration, read-out: IC50 (half-maximal inhibitory concentration), Tie-2 kinase
[2] = in the dose-response figure, read-out: IC50 (dose-dependent inhibitory effect), Tie-2 kinase (converted)

T1 sequence (Q02763 23-1124): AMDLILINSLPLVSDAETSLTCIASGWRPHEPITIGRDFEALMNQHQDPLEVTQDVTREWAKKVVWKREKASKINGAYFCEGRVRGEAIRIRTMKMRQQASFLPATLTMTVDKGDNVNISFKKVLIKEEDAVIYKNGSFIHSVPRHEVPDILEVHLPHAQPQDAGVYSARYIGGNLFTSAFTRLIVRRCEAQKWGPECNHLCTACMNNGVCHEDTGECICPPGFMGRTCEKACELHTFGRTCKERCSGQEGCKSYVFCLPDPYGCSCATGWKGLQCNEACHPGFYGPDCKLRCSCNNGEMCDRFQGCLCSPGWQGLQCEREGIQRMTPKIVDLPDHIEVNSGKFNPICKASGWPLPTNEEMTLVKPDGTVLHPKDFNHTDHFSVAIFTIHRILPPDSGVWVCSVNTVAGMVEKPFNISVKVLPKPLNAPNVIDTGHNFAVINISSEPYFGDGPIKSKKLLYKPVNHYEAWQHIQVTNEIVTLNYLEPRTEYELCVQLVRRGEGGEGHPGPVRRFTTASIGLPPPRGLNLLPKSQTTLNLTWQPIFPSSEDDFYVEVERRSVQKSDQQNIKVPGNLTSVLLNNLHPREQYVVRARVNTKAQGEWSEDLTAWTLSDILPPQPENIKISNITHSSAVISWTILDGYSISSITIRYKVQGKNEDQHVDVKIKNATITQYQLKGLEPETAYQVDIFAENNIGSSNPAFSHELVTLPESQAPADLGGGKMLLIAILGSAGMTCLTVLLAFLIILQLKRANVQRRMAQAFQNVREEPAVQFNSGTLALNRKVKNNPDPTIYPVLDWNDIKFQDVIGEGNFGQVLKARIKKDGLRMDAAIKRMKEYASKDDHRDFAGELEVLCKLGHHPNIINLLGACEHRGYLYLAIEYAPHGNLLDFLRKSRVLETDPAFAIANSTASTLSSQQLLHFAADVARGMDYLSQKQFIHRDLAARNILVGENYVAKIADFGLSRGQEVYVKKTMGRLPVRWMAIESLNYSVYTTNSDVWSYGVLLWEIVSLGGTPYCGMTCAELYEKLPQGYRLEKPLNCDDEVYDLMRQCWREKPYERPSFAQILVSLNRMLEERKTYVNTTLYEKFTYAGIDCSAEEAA
Protocol: In order to assess the biological inhibitory activity of the VS compounds, Z’-Lyte enzymatic activity assay based on FRET (Fluorescence Resonance Energy Transfer) technology was developed as described above. […] At first, all the compounds obtained from both filtering strategies were preliminary screened for their ability to inhibit Tie-2 kinase activity at the concentration of 10 μg/mL.
The Tie-2 kinase inhibitor (CAS#: 948557-43-5, purity ≥ 97%) was purchased from Merck Calbiochem (Darmstadt, Germany) and used as a positive control inhibitor in bioassays[40]. […] All the purchased screening compounds were firstly dissolved in dimethyl sulfoxide (DMSO) at a stock concentration of 5 mg/ml. The final working concentration of DMSO is less than 1%.
Compounds were tested for their ability to inhibit Tie-2 kinase activity using Z′-Lyte® kinase assay kit (ser/thr 5 peptide) with NUNC 384-well plate. In the first step, the test compounds and ATP solution were firstly prepared at 4 × desired concentration. The mixture of recombinant human Tie-2 protein and non-phosphorylated peptide at 2 × desired concentration was prepared in kinase reaction buffer A consisting of 50 mM HEPES (pH 7.5), 0.01% BRIJ-35, 10 mM MgCl2, 4 mM MnCl2, 1 mM EGTA and 2 mM DTT. Reactions were then carried out in a solution containing 2.5 μL test compounds, 5 μL Tie-2/Tyr 05 peptide mixture (10 ng Tie-2 and 2 μM Tyr 05 peptide) and 2.5 μL ATP (100 μM). Then, the assay plate was shaken for 30 seconds on a plate shaker, and incubated for 1 hour at room temperature (20~25 °C). After sufficient kinase reactions, 5 μL development reagent A was added to each well, and the plate was incubated for another hour. Finally, 5 μL stop reagent was added to terminate the reactions, and the coumarin and fluorescein emission signals (excitation: 400 nm; emission: 445 and 520 nm, respectively) were measured on a fluorescence plate reader (BioTek Synergy 4).

Row | Inhibition (%) @10 μg/ml [%] | Structure (SMILES) | other results
1 | 47.23±0.53 | COc1ccc(CNC(=O)CSc2nc3ccc(NC(=O)c4ccccc4C)cc3s2)cc1 [TP-C1-32] | –
2 | 68.53±6.25 | COc1ccc(C(=O)NC(=S)Nc2ccc(-c3nc4cc(C)c(C)cc4o3)cc2)cc1OC [TP-C2-8] | –
3 | 61.04±3.33 | c1ccc(-c2nnc3n2N=C(c2c[nH]c4ccccc24)CS3)cc1 [TP-C1-50] | –
4 | 25.58±3.23 | COc1cc(-c2nc3ccccn3c2N=Cc2c[nH]nc2-c2ccccc2)ccc1O [TP-C1-5] | –
5 | 89.98±1.62 | NS(=O)(=O)c1ccc(CCNC(=O)c2cc(-c3ccncc3)nc3ccc(Cl)cc23)cc1 [TP-C2-38] | IC50 [1]: 7.88 ± 0.35 µM
6 | – | CC(C)(C)c1ccc(C(=O)Nc2ccc(NC(=S)NC(=O)c3ccccc3)cc2)cc1 [TP-C3-2] | inhibition at 5 µg/mL: 33.4 ± 1.74%; IC50 [1]: 27.1 µM; fold decrease in activity compared with compound TP-C3-3 (from IC50 values): ~ 10 fold
7 | 40.32±14.48 | Cc1ccccc1COc1ccc(-c2nnn(CC(=O)Nc3ccc4c(c3)OCO4)n2)cc1 [TP-C2-28] | –
8 | – | COc1ccc(C(=O)NC(=S)Nc2ccc(NC(=O)c3cccc(C)c3)cc2)cc1OC [TP-C2-9] | inhibition at 10 µg/mL: 81.6 ± 2.85%; IC50 [1]: 1.86 ± 0.18 µM; IC50 [2]: 1.87 µM
9 | 77.43±0.89 | Cc1cc(S(=O)(=O)Nc2ccc(F)cc2)ccc1OCC(=O)NCc1cccnc1 [TP-C2-53] | –
10 | 87.59±3.7 | O=C(NCc1ccco1)c1cc(-c2ccccn2)nc2ccc(Cl)cc12 [TP-C2-35] | IC50 [1]: 4.59 ± 0.29 µM
11 | 7.19±0.3 | COCCCN1C(=O)C(O)=C(C(=O)c2ccc(Cl)cc2)C1c1ccc(O)cc1 (centres unmarked) [TP-C1-26] | –
12 | 48.48±7.49 | O=c1[nH]nc(CCc2n[nH]c(=O)c3ccccc23)c2ccccc12 [TP-C2-1] | –
13 | 55.28±4.04 | COc1cc2c(cc1OC)C(c1ccc(OCc3ccccc3)cc1)CC(=O)N2 (racemic) [TP-C2-27] | –
14 | 66.32±3.22 | COc1ccc(C2C(C(=O)c3cccs3)=C(O)C(=O)N2CCN(C)C)cc1OC (racemic) [TP-C2-17] | –
15 | 10.67±4.7 | CCOc1cc(-c2nc3sc4c(c3c(=O)[nH]2)CCCC4)ccc1OCc1ccccc1F [TP-C1-14] | –
16 | 55.92±5.4 | CC(C)CNC(=O)c1ccccc1NC(=O)c1ccccc1N(C)S(=O)(=O)c1ccccc1 [TP-C2-29] | –
17 | 65.92±4.36 | COc1ccc(-c2nnc(SC(CC(=O)NCc3ccco3)c3ccc(C)cc3)[nH]2)cc1 (centres unmarked) [TP-C2-45] | –
18 | 3.6±13.1 | Cc1cccc(C(=O)Nc2ccc(-c3cc4ccccc4oc3=O)cc2)c1 [TP-C1-12] | –
19 | 20.01±0.68 | Cl.O=C(O)c1ccc(Cl)c(-c2ccc(CNCC(O)c3ccccc3)o2)c1 (centres unmarked) [TP-C1-55] | –
20 | 64.42±0.23 | O=C(COc1ccc(S(=O)(=O)N2CCc3ccccc32)cc1)NCc1cccnc1 [TP-C2-52] | –
21 | 28.39±0.73 | c1ccc(-c2nnc(CSc3nnc(-c4ccncc4)[nH]3)o2)cc1 [TP-C1-53] | –
22 | 25.51±1.18 | O=C(OCc1ccccc1)c1cn(-c2ccccc2)nc1-c1ccncc1 [TP-C1-37] | IC50 [1]: 36.1 ± 1.33 µM
23 | 37.64±1.82 | CCOC(=O)c1ccc(NC(=O)CN2C(=O)c3ccccc3C2=O)cc1 [TP-C1-3] | –

Row | Inhibition (%) @10 μg/ml [%] | Structure (SMILES) | other results
24 | 87.61±5.43 | COc1cc(NC(=S)NC(=O)c2ccccc2OC)ccc1NC(=O)c1cc2ccccc2o1 [TP-C2-11] | IC50 [1]: 15.1 ± 0.92 µM
25 | 3.13±1.45 | COc1cccc(C2C(C(=O)c3ccc(C)o3)=C(O)C(=O)N2CCN(C)C)c1 (centres unmarked) [TP-C1-25] | –
26 | 28.98±1.34 | Cc1ccc(-c2cc(C(=O)OCC(=O)c3ccccc3)c3cccc(C)c3n2)cc1 [TP-C1-13] | Tie-2 inhibitory activity in words (active / inactive) (VS candidates of Strategy 1, preliminary screening at 10 μg/mL): inactive
27 | 51.93±0.22 | COc1ccc(-c2cc3ccccc3oc2=O)cc1NC(=O)c1cccnc1 [TP-C2-31] | –
28 | 85.54±0.14 | Cc1ccc2nc(-c3ccc(NC(=S)NC(=O)c4oc5ccccc5c4C)cc3)oc2c1 [TP-C2-12] | IC50 [1]: 14.6 ± 1.21 µM
29 | 9.84±11.04 | O=C(NCCNC(=O)c1cc2ccccc2cc1O)c1cc2ccccc2cc1O [TP-C1-7] | –
30 | 74.86±1.02 | Cc1ccc2c(c1)C(Cc1nc3ccccc3c(=O)n1CCc1ccccc1)C(=O)N2 (centres unmarked) [TP-C2-56] | –
31 | -280.42±23.11 | O=C(O)CC1SC(=NN=Cc2ccc(OC(=O)c3cccc4ccccc34)cc2)NC1=O (racemic) [TP-C2-19] | –
32 | 23.47±2.17 | CCOc1cc(CNCCc2ccc(S(N)(=O)=O)cc2)ccc1OCc1ccccc1.Cl [TP-C2-42] | –
33 | – | CC(=O)Nc1c(O)nc(SCC(=O)Nc2ccc(C(C)=O)cc2)[nH]c1=O [TP-C1-47] | inhibition at 10 µg/mL: 81.9 ± 1.73%; IC50 [1]: 5.15 ± 0.4 µM; IC50 [2]: 5.15 µM
34 | 48.64±1.91 | O=C(Nc1ccc2c(c1)OCCO2)C1CC(=O)N(CCc2c[nH]c3ccc(F)cc23)C1 (centres unmarked) [TP-C2-57] | –
35 | 56.11±13.15 | CCN1C(=O)NC(c2ccc(Cl)cc2)C(C(=O)OCCc2ccccc2)=C1C (racemic) [TP-C2-3] | –
36 | – | O=C(NC(=S)Nc1cccc2c(O)cccc12)c1ccc(-c2ccccc2)cc1 [TP-C2-50] | inhibition at 10 µg/mL: 97.8 ± 1.13%; IC50 [1]: 1.73 ± 0.17 µM; IC50 [2]: 1.73 µM
37 | 80.89±0.31 | Cc1ccc2nc(-c3ccccn3)cc(C(=O)NC3CCCc4ccccc43)c2c1 (centres unmarked) [TP-C2-37] | IC50 [1]: 10.8 ± 0.83 µM
38 | 58.96±3.25 | CC1=C(C(=O)Nc2ccc(C)cc2C)C(c2ccc(O)cc2)NC(=S)N1 (centres unmarked) [TP-C1-21] | –
39 | 69.07±3.54 | COc1ccc(-c2cc(-c3ccccc3)c(C#N)c(S(=O)(=O)Cc3ccccc3)n2)cc1 [TP-C1-35] | –
40 | -0.28±1.12 | Cc1ccccc1-c1nc(S(=O)(=O)c2ccc(Cl)cc2)c(NCc2cccnc2)o1 [TP-C1-43] | –
41 | 56.09±2.14 | Fc1ccc(C2CC(c3cccs3)=NN2C(=S)NCCc2ccccc2)cc1 (racemic) [TP-C1-39] | –
42 | 71.64±2.92 | COc1ccc(OC)c(Nc2nc(-c3cccc(NC(=O)c4ccccc4)c3)cs2)c1 [TP-C2-14] | –
43 | 63.88±1.45 | O=C(c1cc(-c2ccncc2)nc2ccc(Br)cc12)N1CCN(Cc2ccc3c(c2)OCO3)CC1 [TP-C1-45] | –
44 | 61.48±4.57 | O=C(c1cc(-c2ccncc2)nc2ccc(Cl)cc12)N1CCN(C(=O)C2CCCO2)CC1 (centres unmarked) [TP-C2-36] | –
45 | 84.1±0.44 | Cc1c(C(=O)NC(=S)Nc2ccc(-c3nc4ccccc4s3)cc2)oc2ccccc12 [TP-C2-16] | IC50 [1]: 8.83 ± 0.58 µM
46 | 84.95±3.24 | CC1(C)CC(=O)C(C(=S)Nc2ccccc2)=C(NCc2ccc3c(c2)OCO3)C1 [TP-C2-13] | IC50 [1]: 6.78 ± 0.36 µM

Row | Inhibition (%) @10 μg/ml [%] | Structure (SMILES) | other results
47 | 90.2±6.92 | CC(=O)c1c(C)cc(C)c(CSc2ccccn2)c1C [TP-C2-22] | IC50 [1]: 8.44 ± 0.93 µM
48 | 66.88±8.04 | Cc1nc(-c2cccnc2)sc1C(=O)NCc1ccccn1 [TP-C2-60] | –
49 | 9.52±4.54 | CCOC(=O)CNS(=O)(=O)c1cc(-c2nnc(Nc3cccc(C)c3)c3ccccc23)ccc1C [TP-C1-16] | –
50 | 67.14±5.68 | Cc1ccccc1C(=O)NC(=S)Nc1ccc(NC(=O)c2cc3ccccc3o2)cc1 [TP-C2-47] | –
51 | 46.26±3.21 | O=C(NC(=S)Nc1ccc(-c2nc3ccccc3o2)c(O)c1)c1cccc(Br)c1 [TP-C2-10] | –
52 | 6.95±6.26 | CC(=O)Oc1ccccc1NC(=O)c1ccc2c(c1)C(=O)N(CC1CCCO1)C2=O (centres unmarked) [TP-C1-34] | –
53 | – | CCc1ccc(C(=O)NC(=S)Nc2ccc(NC(=O)c3ccc(Cl)cc3Cl)cc2)cc1 [TP-C3-55] | inhibition at 5 µg/mL: 60.22 ± 0.55%; IC50 [1]: 3.47 µM
54 | 60.19±2.33 | O=C(Nc1ccccn1)c1cc(-c2ccncc2)nc2ccccc12 [TP-C2-54] | –
55 | 32.86±3.03 | Cc1c(C)n(Cc2ccccc2)c2ccc(C(=O)NNC(=S)NCC3CCCO3)cc12 (centres unmarked) [TP-C1-41] | –
56 | 81.26±3.96 | Cc1cc(NC(=S)NC(=O)c2ccc3c(c2)OCO3)ccc1NC(=O)c1ccccc1 [TP-C2-30] | IC50 [1]: 2.05 ± 0.11 µM
57 | – | CCCOc1cccc(C(=O)NC(=S)Nc2ccc(NC(=O)c3ccccc3)cc2)c1 [TP-C3-14] | inhibition at 5 µg/mL: 43 ± 1.08%; IC50 [1]: 22.7 µM
58 | 56.84±0.18 | N#Cc1cc2c([nH]c1=O)CC(c1ccccc1)CC2=NNc1ccccc1 (centres unmarked) [TP-C1-2] | –
59 | 49.58±1.56 | COc1cccc(OC)c1C(=O)NC(=S)Nc1ccc(NC(=O)c2ccco2)c(Cl)c1 [TP-C1-49] | –
60 | -0.66±5.93 | CCc1ccc2oc(-c3ccc(NC(=S)NC(=O)c4cc5ccccc5o4)cc3)nc2c1 [TP-C1-15] | –
61 | 74.19±1.14 | O=C(c1n[nH]c(=O)c2ccccc12)N1CCOC(COc2ccccc2)C1 (centres unmarked) [TP-C2-59] | –
62 | – | CCCOc1ccc(C(=O)NC(=S)Nc2ccc(NC(=O)c3ccc(C(C)(C)C)cc3)cc2)cc1 [TP-C3-52] | inhibition at 5 µg/mL: 7.88 ± 0.59%; IC50 [1]: 36.7 µM
63 | – | Cc1cccc(C(=O)Nc2ccc(NC(=S)NC(=O)c3ccccc3Cl)cc2)c1 [TP-C3-45] | inhibition at 5 µg/mL: 49.3 ± 0.95%; IC50 [1]: 2.41 µM
64 | 29.83±0.28 | c1cncc(CN2CN(CC3CCCO3)c3nc4ccccc4n3C2)c1 (racemic) [TP-C1-56] | –
65 | 52.94±2.54 | O=C(NCCOc1ccccc1)c1n[nH]c(=O)c2ccccc12 [TP-C2-44] | –
66 | 54.53±0.58 | Cc1cc(NC(=S)NC(=O)c2ccccc2C)ccc1NC(=O)c1ccccc1 [TP-C2-7] | –
67 | 61.34±20.45 | Cc1ccccc1C(=O)Nc1cccc(Oc2ccc3c(c2)C(=O)NC3=O)c1 [TP-C2-26] | –
68 | 39.83±5.94 | O=C(NCCc1cccc2ccccc12)C1CCCN1S(=O)(=O)c1ccc2ccccc2c1 (centres unmarked) [TP-C1-29] | –
69 | – | COC(=O)c1ccc(C)c(NC(=O)c2cc(-c3ccccn3)nc3ccc(Br)cc23)c1 [TP-C2-33] | inhibition at 10 µg/mL: 95.2 ± 1.81%; IC50 [1]: 3.31 ± 0.23 µM; IC50 [2]: 3.32 µM

Row | Structure (SMILES) | Inhibition (%) @10 μg/ml [%] | other results
70 | CCOc1ccc(CN(CCc2ccc3c(c2)OCO3)Cc2ccc(C)cc2)cc1 [TP-C1-9] | 17.49±0.65 | –
